Laboratory results reported in US20190357555A1, “BLUEBERRY FRESH-KEEPING AGENT, PREPARATION METHOD AND APPLICATIONS THEREOF” (ZHEJIANG ACADEMY OF AGRICULTURAL SCIENCES, priority 2018, published 2019).

System: Botrytis cinerea
Test: Filter-paper inhibition zone test against Botrytis cinerea
Format: cell-based
Conditions: PDA, 28° C., 6 days; for inhibition zone diameter: filter paper 1 cm soaked 4 hours; for inhibitory effect on Botrytis cinerea (in words): filter paper test
Procedure: Test species and reagents: Botrytis cinerea was isolated from the picked blueberries in the laboratory, and chitosan and ascorbic acid were purchased commercially.
Medium and culture conditions: a PDA medium was used, and cultured at 28° C. for 6 days.
Antibacterial effect test: after Botrytis cinerea was activated with the PDA medium, lawn of Botrytis cinerea was picked up and suspended with sterile water to obtain a bacterial suspension. Scraps of filter paper with a diameter of 1 cm were made from a highly absorbent filter paper by using a puncher, and the scraps of filter paper were subjected to dry heat sterilization and soaked in the Galla chinensis extract, a chitosan solution, and an ascorbic acid solution, respectively, and dried for use after 4 hours soaking. The solid PDA medium was melted, poured into a culture dish, cooled and solidified, then 0.1 mL of the bacterial suspension was added and uniformly coated, and then the scraps of filter paper soaked with the above solutions were attached to the bacteria-containing culture dish, and a scrap of filter paper impregnated with sterile water was used as a control. The culture dish treated above was cultured at 28° C. for 6 days, and the diameters of inhibition zones were measured.

Row | SMILES | inhibition zone diameter | inhibitory effect on Botrytis cinerea (in words)
1 | O=C1O[C@H]([C@@H](O)CO)C(O)=C1O [ascorbic acid] | 0.00 mm | no inhibitory effect
2 | O=C(O)c1cc(O)c(O)c(O)c1 [gallic acid] | 0.00 mm | no inhibitory effect
